Source: patent US20250034170A1, “SMALL MOLECULE MODULATORS OF GLUCOCEREBROSIDASE ACTIVITY AND USES THEREOF” (Vanqua Bio, Inc., priority 2021, published 2025)

Target: T1, GCase (Homo sapiens, UniProt P04062)
T1 construct: endogenous in cells; host or cells: HeLa cells
T1 sequence (P04062 40-536): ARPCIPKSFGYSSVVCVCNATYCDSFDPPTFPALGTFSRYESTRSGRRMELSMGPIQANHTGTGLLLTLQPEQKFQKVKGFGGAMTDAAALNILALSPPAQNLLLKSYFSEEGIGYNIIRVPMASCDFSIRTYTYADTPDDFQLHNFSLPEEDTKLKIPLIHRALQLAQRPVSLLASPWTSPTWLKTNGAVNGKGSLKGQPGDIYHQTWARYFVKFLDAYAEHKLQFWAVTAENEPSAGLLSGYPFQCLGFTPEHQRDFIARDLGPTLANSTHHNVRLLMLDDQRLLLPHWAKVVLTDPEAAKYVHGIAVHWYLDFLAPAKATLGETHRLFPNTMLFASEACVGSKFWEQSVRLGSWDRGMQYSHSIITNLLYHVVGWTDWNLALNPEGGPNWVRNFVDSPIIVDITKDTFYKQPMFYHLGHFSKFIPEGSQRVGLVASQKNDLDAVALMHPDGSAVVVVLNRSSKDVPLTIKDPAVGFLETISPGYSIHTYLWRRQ
Assay: activation of GCase in a live cell PFB assay in HELA cells
Type: cell-based
Method: Exemplary compounds were evaluated for activation of GCase in a live cell PFB assay in HELA cells (essentially as described in Ysselstein et al., “LRRK2 kinase activity regulates lysosomal glucocerebrosidase in neurons derived from Parkinson's disease patients” Nature Communications (2019) 10:5570). […] EC50 ranges: A: <10 μM; B: >10-50 μM; C: >50-100 μM; D: >100 μM.

[1] = activation of GCase, EC50 ranges

| Structure (SMILES) | EC50 [1] | EC50 (EC50 given as range classes) |
| --- | --- | --- |
| COc1nc2cnn(CC(F)F)c2nc1N1CCC2(CC1)CCN(c1ccc(C(F)(F)F)nc1)C2=O [Cmpd 834] | < 10 µM |  |
| O=C1N(c2ccc(C(F)(F)F)nc2)CCC12CCN(c1cnc3cnn(C4COC4)c3n1)CC2 [Cmpd 886] | 10 to 50 µM |  |
| O=C1CC2(CCN(c3cnc4cnn(CC(F)F)c4n3)CC2)CN1Cc1ccnc(OCC(F)(F)F)n1 [Cmpd 971] | < 10 µM |  |
| CCn1c(-c2ccccc2)nc2ncc(N3CCC4(CN(c5ccnc(C(F)(F)F)c5)C4)C3)nc21 [Cmpd 1043] | < 10 µM |  |
| FC(F)Cn1ncc2ncc(N3CCC4(CCN(c5ccc(C(F)(F)F)nc5)C4)C(F)(F)C3)nc21 (stereo not drawn) [Cmpd 266] | < 10 µM |  |
| O=S(=O)(c1ccccc1Cl)N1CC2(CCN(c3cnc4cnn(CC(F)F)c4n3)C2)C1 [Cmpd 393] |  | 10 to 50 µM |
| O=C1CC2(CCN1c1ccc(C(F)(F)F)cn1)CN(c1cnc3cnn(CC(F)F)c3n1)C2 [Cmpd 912] | 10 to 50 µM |  |
| O=C1N(c2ccc(C(F)(F)F)nc2)CCC12CCN(c1cnc3cnn(CC(F)F)c3n1)C2 (stereo not drawn) [Cmpd 201] |  | 10 to 50 µM |
| FC(F)(F)c1ncc(N2CC3(CCN(c4cnc5cnn(C6CCCCO6)c5n4)C3)C2)cn1 (stereo not drawn) [Cmpd 470] | 10 to 50 µM |  |
| Cc1cc(N2CC3(CCN(c4cnc5cnn(C6COC6)c5n4)C3)C2)nc(C(F)(F)F)n1 [Cmpd 454] | 10 to 50 µM |  |
| O=C1CC2(CCN(c3cnc4cnn(CC(F)F)c4n3)C2)CCN1c1ccc(C(F)(F)F)nc1 (stereo not drawn) [Cmpd 789] |  | 10 to 50 µM |
| Fc1cc(C(F)(F)F)cnc1N1CCC2(CCN(c3cnc4cnn(CC(F)F)c4n3)CC2)C1 [Cmpd 743] | 10 to 50 µM |  |
| Cc1cc(N2CC3(CCN(c4ncc5cnn(CC(F)F)c5n4)C3)C2)nc(C(F)(F)F)n1 [Cmpd 466] | > 100 µM |  |
| O=S(=O)(c1ccc(C(F)(F)F)nc1)N1CC2(CCN(c3cnc4cnn(CC(F)F)c4n3)C2)C1 [Cmpd 414] |  | 10 to 50 µM |
| FC(F)(F)c1cnc(N2CCC3(CCN(c4cncc(-c5nncs5)n4)CC3)C2)cn1 [Cmpd 824] |  | 10 to 50 µM |
| CCOc1nn(C2COC2)c2nc(N3CCC4(CC3)CC(=O)N(c3ccc(C(F)(F)F)nc3)C4)ncc12 [Cmpd 953] | 10 to 50 µM |  |
| CCc1nn(CC(F)F)c2nc(N3CCC4(CN(c5cc(C(F)(F)F)nc(C)n5)C4)C3)cnc12 [Cmpd 1064] | 10 to 50 µM |  |

| Structure (SMILES) | EC50 [1] | EC50 (EC50 given as range classes) |
| --- | --- | --- |
| O=C1N(c2cnc(C(F)(F)F)cn2)C(=O)C2(CCN(c3cnc4cnn(CC(F)F)c4n3)CC2)N1Cc1cc(F)cc(F)c1 [Cmpd 821] |  | < 10 µM |
| CCn1c(N2CCC3(CN(c4cc(C(F)(F)F)nc(C)n4)C3)C2)nc2c(cnn2CC(F)F)c1=O [Cmpd 1103] | < 10 µM |  |
| O=C1N(c2nccc(C(F)(F)F)n2)CCC12CCN(c1cnc3cnn(CC(F)F)c3n1)CC2 [Cmpd 773] | < 10 µM |  |
| O=C1CC2(CCN(c3cnc4cnn(C5COC5)c4n3)CC2)CN1c1ccc(C(F)(F)F)cn1 [Cmpd 857] | < 10 µM |  |
| FC(F)Cn1ncc2ncc(N3CCC4(CC3)CC(Oc3cncc(C(F)(F)F)c3)C4)nc21 [Cmpd 704] | < 10 µM |  |
| O=C1N(c2ccnc(C(F)(F)F)n2)CCC12CCN(c1ncc3cnn(CC(F)F)c3n1)CC2 [Cmpd 900] | < 10 µM |  |
| Cc1cnc(C(F)(F)F)nc1N1CC2(CCN(c3cnc4cnn(CC(F)F)c4n3)C2)C1 [Cmpd 961] | 10 to 50 µM |  |
| Cc1nn(CC(F)F)c2nc(N3CCC4(CC3)CN(c3cc(C(F)(F)F)ccn3)C4)cnc12 [Cmpd 490] | < 10 µM |  |
| Cn1c(=O)n(C2COC2)c2ncc(N3CCC4(CN(c5ccnc(C(F)(F)F)c5)C4)C3)nc21 [Cmpd 979] |  | < 10 µM |
| FC(F)c1nnc(-c2cncc(N3CCC4(CN(c5ccnc(C(F)(F)F)c5)C4)C3)n2)s1 [Cmpd 1062] | 10 to 50 µM |  |
| CCn1c(=O)n(CC(F)F)c2nc(N3CCC4(CN(c5cc(C(F)(F)F)nc(C)n5)C4)C3)cnc21 [Cmpd 1074] | < 10 µM |  |
| Cc1ccc(N2CCC3(CCN(c4cnc5cnn(CC(F)F)c5n4)CC3)C2)nn1 [Cmpd 757] | < 10 µM |  |
| CCc1nn(C2COC2)c2nc(N3CCC4(CN(c5ccnc(C(F)(F)F)c5)C4)C3)ncc12 [Cmpd 1070] | < 10 µM |  |
| FC(F)Cn1ncc2ncc(N3CCC4(CCN(c5ccc(C(F)(F)F)nn5)C4)CC3)nc21 [Cmpd 732] | 10 to 50 µM |  |
| CC(c1ccc(Cl)cn1)N1CC2(CCN(c3cnc4cnn(CC(F)F)c4n3)CC2)CC1=O (stereo not drawn) [Cmpd 967] | < 10 µM |  |
| Cc1nc(N2CC3(CCN(c4ncc5c(n4)n(CC(F)F)c(=O)n5C)C3)C2)cc(C(F)(F)F)n1 [Cmpd 1082] | < 10 µM |  |
